What is called Kd is the free concentration of one partner at which half of the binding sites on the other are occupied at equilibrium, for simple one-to-one binding. By Ki is commonly meant a dissociation constant, usually derived from enzyme kinetics or from competition with a known ligand.

The target in assay [1] is T1, C-CBL (46-435) (Homo sapiens, UniProt P22681).
T1 construct: N-terminal biotinylated WT CBL-B (36-427) and C-CBL (46-435) were captured on a streptavidin (SA) coated sensor chip
T1 sequence (P22681 46-435): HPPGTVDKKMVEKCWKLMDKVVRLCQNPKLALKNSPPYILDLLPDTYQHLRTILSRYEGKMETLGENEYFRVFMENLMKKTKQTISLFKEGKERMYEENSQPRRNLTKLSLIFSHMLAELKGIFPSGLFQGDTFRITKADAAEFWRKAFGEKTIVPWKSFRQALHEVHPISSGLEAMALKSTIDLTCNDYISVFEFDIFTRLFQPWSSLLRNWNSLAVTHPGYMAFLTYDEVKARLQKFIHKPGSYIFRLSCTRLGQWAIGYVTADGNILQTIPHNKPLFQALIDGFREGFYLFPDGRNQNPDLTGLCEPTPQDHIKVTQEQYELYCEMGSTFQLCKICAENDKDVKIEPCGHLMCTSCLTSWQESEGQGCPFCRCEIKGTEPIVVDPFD
Briefly: Surface Plasmon Resonance (SPR) assay, binding affinity and kinetics, C-CBL. Conditions: SPR at 10° C., biotinylated C-CBL (46-435) on streptavidin chip; geometric mean; read-out: C-CBL SPR Kd (nM) GMean. Summed up: (§1)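 SPR kinetics at 10° C, run either single-cycle (0.001–1 μM, 3-fold, 6 points, 120 s on, >5400 s off) or multi-cycle (10 points, 2-fold, top 10 or 100 μM, 90 s on). Proteins were N-biotinylated CBL-B (36-427) and C-CBL (46-435) on SA surfaces, in pH 7.2 HEPES, 2% DMSO.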

The target of assay [2] is T2, C-CBL (residues 46-435) (Homo sapiens, UniProt P22681).
T2 construct: Purified CBL-B (residues 36-427) and C-CBL (residues 46-435) proteins from baculovirus-infected insect cells; made in house; host or cells: baculovirus-infected insect cells
T2 sequence (P22681 46-435): T1 sequence (P22681 46-435)
Nature of the assay: Ligand Displacement Assay (LDA), HTRF competitive binding against BODIPY-labeled fluorescent tracer, C-CBL. The note with it: geometric mean of the number of tests, read-out: C-CBL Ki (nM) GMean. Summed up: (§2)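 Terbium-streptavidin donor on BirA-biotinylated, AviTagged protein from baculovirus-infected insect cells; BODIPY tracer as acceptor. Compound titrations were three-fold and duplicated, […] with 2% DMSO final.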
For orientation: Time-resolved FRET reads energy transfer from a long-lived donor to a nearby acceptor.

For assay [3], the target named is T3, CBL-B (residues 36-427) (Homo sapiens, UniProt Q13191).
T3 construct: Purified CBL-B (residues 36-427) and C-CBL (residues 46-435) proteins from baculovirus-infected insect cells; made in house; host or cells: baculovirus-infected insect cells
Briefly: Ligand Displacement Assay (LDA), HTRF competitive binding against BODIPY-labeled fluorescent tracer, CBL-B. Conditions: geometric mean of the number of tests, read-out: CBL-B Ki (nM) GMean. Summed up: as §2

Assay [4] concerns the target T4, WT CBL-B (36-427) (Homo sapiens, UniProt Q13191).
T4 construct: N-terminal biotinylated WT CBL-B (36-427) and C-CBL (46-435) were captured on a streptavidin (SA) coated sensor chip
Briefly: Surface Plasmon Resonance (SPR) assay, binding affinity and kinetics, CBL-B. The note with it: SPR at 10° C., biotinylated WT CBL-B (36-427) on streptavidin chip; geometric mean; read-out: CBL-B SPR Kd (nM) GMean. Summed up: as §1

For `Cn1cnnc1[C@@H](c1cccc(-c2n[nH]c3c(CN4C[C@@H](F)[C@H](F)C4)nc(C(F)(F)F)cc23)c1)C1CCC1` [Example C111, 3-{3-[(R)-cyclobutyl(4-methyl-4H-1,2,4-triazol-3-yl)methyl]phenyl}-7-{[(3R,4R)-3,4-difluoropyrrolidin-1-yl]methyl}-5-(trifluoromethyl)-1H-pyrazolo[3,4-c]pyridine], the Kd in assay [1] was determined as 282 nM; in assay [4] it was 3.3 nM. The Ki stood at 313 nM in assay [2] and 26.9 nM in assay [3].
Take `C[C@@H]1CN(Cc2nc(C(F)(F)F)cc3c(-c4cccc([C@H](c5nncn5C)C5CCC5)c4)n[nH]c23)CCO1` [Example C113, 3-{3-[(R)-cyclobutyl(4-methyl-4H-1,2,4-triazol-3-yl)methyl]phenyl}-7-{[(2R)-2-methylmorpholin-4-yl]methyl}-5-(trifluoromethyl)-1H-pyrazolo[3,4-c]pyridine]: the Kd is 83.6 nM in assay [1] and 4.8 nM in assay [4]. Also, the results for the Ki in assay [2] and in assay [3] were 233 nM and 27.1 nM, respectively.
With `Cn1cnnc1[C@@H](c1cccc(-c2n[nH]c3c(CN4CC(F)(F)C4)nc(C(F)(F)F)cc23)c1)C1CCC1` [Example C115, 3-{3-[(R)-cyclobutyl(4-methyl-4H-1,2,4-triazol-3-yl)methyl]phenyl}-7-[(3,3-difluoroazetidin-1-yl)methyl]-5-(trifluoromethyl)-1H-pyrazolo[3,4-c]pyridine], the Kd in assay [1] worked out at 195 nM; in assay [4] it was 9.2 nM. For the same compound, the inhibition constant Ki in assay [2] turned out to be 1020 nM; in assay [3] it was 73.8 nM.
For `C[C@@H]1CN(Cc2nc(C(F)(F)F)cc3c(-c4cccc(C5(Cc6nncn6C)COC5)c4)n[nH]c23)CCO1` [Example C72, 7-{[(2R)-2-methylmorpholin-4-yl]methyl}-3-(3-{3-[(4-methyl-4H-1,2,4-triazol-3-yl)methyl]oxetan-3-yl}phenyl)-5-(trifluoromethyl)-1H-pyrazolo[3,4-c]pyridine], in that order: 63.1 nM, 2.3 nM, 83.3 nM and 18.6 nM.
For the compound `CC(N[C@H]1CCOC1)c1nc(C(F)(F)F)cc2c(-c3cccc(C4(Cc5nncn5C)COC4)c3)n[nH]c12` (single isomer, unassigned) [Example C82], the Kd came to 17 nM in assay [1] and 2.3 nM in assay [4]. The values for the Ki in assay [2] and in assay [3] were 23.3 nM and 5.2 nM, respectively.
For `C[C@@H]1CN([C@@H](C)c2nc(C(F)(F)F)cc3c(-c4cccc(C5(Cc6nncn6C)COC5)c4)n[nH]c23)CCO1` (single isomer, unassigned) [Example D49], in that order: 82 nM, 5.9 nM, 104 nM and 17.8 nM.
For `CCNCc1nc(C(F)(F)F)cc2c(-c3cccc(C4(Cc5nncn5C)COC4)c3)n[nH]c12` [Example C56, N-{[3-(3-{3-[(4-methyl-4H-1,2,4-triazol-3-yl)methyl]oxetan-3-yl}phenyl)-5-(trifluoromethyl)-1H-pyrazolo[3,4-c]pyridin-7-yl]methyl}ethanamine], in that order: 150 nM, 11 nM, 201 nM and 43.6 nM.
The matching figures for `C[C@H](c1nc(C(F)(F)F)cc2c(-c3cccc([C@H](c4nncn4C)C4CCC4)c3)n[nH]c12)N1CCNC(=O)C1` (single isomer, unassigned) [Example D89]: 307 nM, 11 nM, 290 nM and 20.9 nM.
`Cn1cnnc1[C@@H](c1cccc(-c2n[nH]c3c(CN4CCC(F)(F)C4)nc(C(F)(F)F)cc23)c1)C1CCC1` [Example C114, 3-{3-[(R)-cyclobutyl(4-methyl-4H-1,2,4-triazol-3-yl)methyl]phenyl}-7-[(3,3-difluoropyrrolidin-1-yl)methyl]-5-(trifluoromethyl)-1H-pyrazolo[3,4-c]pyridine]: the Kd in assay [1] was determined as 278 nM; in assay [4] it was 10.8 nM. In addition, the values for the Ki in assay [2] and in assay [3] were 1070 nM and 87.9 nM, respectively.
The matching figures for `CN[C@H](C)c1nc(C(F)(F)F)cc2c(-c3cccc(C4(Cc5nncn5C)COC4)c3)n[nH]c12` (single isomer, unassigned) [Example D38]: 110 nM, 10 nM, 135 nM and 34 nM.
For `CC(CN)c1nc(C(F)(F)F)cc2c(-c3cccc([C@H](c4nncn4C)C4CCC4)c3)n[nH]c12` (single isomer, unassigned) [Example K15], the figures for the Kd in assay [1] and in assay [4] were 452 nM and 23.9 nM, respectively. The inhibitory constant (Ki) was 263 nM in assay [2] and 30.1 nM in assay [3].
For `Cn1cnnc1[C@@H](c1cccc(-c2n[nH]c3c(CO)nc(C(F)(F)F)cc23)c1)C1CCC1` [Example K9, [3-{3-[(R)-cyclobutyl(4-methyl-4H-1,2,4-triazol-3-yl)methyl]phenyl}-5-(trifluoromethyl)-1H-pyrazolo[3,4-c]pyridin-7-yl]methanol], in that order: 298 nM, 12.7 nM, 328 nM and 45.4 nM.
The matching figures for `Cn1cnnc1CC1(c2cccc(-c3n[nH]c4c(CN5CCNCC5)nc(C(F)(F)F)cc34)c2)COC1` [Example C64, 3-(3-{3-[(4-methyl-4H-1,2,4-triazol-3-yl)methyl]oxetan-3-yl}phenyl)-7-[(piperazin-1-yl)methyl]-5-(trifluoromethyl)-1H-pyrazolo[3,4-c]pyridine]: 65.2 nM, 3 nM, 117 nM and 31.2 nM.
As for `Cn1cnnc1CC1(c2cccc(-c3n[nH]c4c(CN5CCNC(=O)C5)nc(C(F)(F)F)cc34)c2)COC1` [Example C55, 4-{[3-(3-{3-[(4-methyl-4H-1,2,4-triazol-3-yl)methyl]oxetan-3-yl}phenyl)-5-(trifluoromethyl)-1H-pyrazolo[3,4-c]pyridin-7-yl]methyl}piperazin-2-one], the Kd in assay [1] stood at 27.6 nM; in assay [4], 3 nM. In addition, the Ki in assay [2] stood at 65.3 nM; in assay [3] it was 21.2 nM.
For `Cn1cnnc1[C@@H](c1cccc(-c2n[nH]c3c(CN[C@@H]4CC[C@@H](O)C4)nc(C(F)(F)F)cc23)c1)C1CCC1` [Example D35], in that order: 152 nM, 4.4 nM, 100 nM and 12.9 nM.
For `C[C@H](Cc1nncn1C)c1cccc(-c2n[nH]c3cnc(C(F)(F)F)cc23)c1` [Example N1, 3-{3-[(2R)-1-(4-methyl-4H-1,2,4-triazol-3-yl)propan-2-yl]phenyl}-5-(trifluoromethyl)-1H-pyrazolo[3,4-c]pyridine], the Kd in assay [1] amounted to 275 nM; in assay [4], 35.8 nM. Also, the Ki was 249 nM in assay [2] and 70 nM in assay [3].
On to `CN1CC[C@@H](N(C)c2nc(C(F)(F)F)cc3c(-c4cccc([C@H](c5nncn5C)C5CCC5)c4)n[nH]c23)C1` [Example J11, 3-{3-[(R)-cyclobutyl(4-methyl-4H-1,2,4-triazol-3-yl)methyl]phenyl}-N-methyl-N-[(3R)-1-methylpyrrolidin-3-yl]-5-(trifluoromethyl)-1H-pyrazolo[3,4-c]pyridin-7-amine], for which the values for the Kd in assay [1] and in assay [4] were 393 nM and 24 nM, respectively. Also, the results for the Ki in assay [2] and in assay [3] were 275 nM and 41.6 nM, respectively.

The values above are taken from US20260125375A1 (Pfizer Inc., priority 2022, published 2026).
